# Test results published in patent US20050203013A1, “Methods for inhibiting vascular permeability” (priority 2002, published 2005).
# What was measured:
# [1] = tested on: VEGF induced vessel permeability; assay: Miles assay (Example 2), VEGF165 challenge; type: in vivo, mice
# Protocol: One of the problems with angiogenesis-dependent diseases is increased vessel permeability (due to high levels of VPF) which results in edema and loss of proteins. A decrease in vessel permeability is beneficial in those diseases. […] Briefly, a dye, Evans Blue (1% in PBS), was injected i.v. to anesthesized mice. After 10 min, human recombinant VEGF165 (50 ng/50 μl) was injected intradermally into the back skin. Leakage of protein-bound dye was detected as blue spots on the underside of the back skin surrounding the injection site. After 20 min mice were euthanized. Then, the skin was excised, left in formamide for 5 days to be extracted and the solution read at 620 nm. Putative angiogenesis inhibitors such as free and conjugated TNP-470 were injected daily 3 days (30 mg/kg/day) prior to the VEGF challenge. The same was repeated on tumor-bearing mice to evaluate the effect of angiogenesis inhibitors on tumor vessel permeability.
# skin vessel permeability [2] = assay: Miles vascular permeability assay (Example 3); type: in vivo, SCID mice
# Protocol: SCID mice were injected subcutaneously (s.c.) with TNP-470 or HPMA copolymer-TNP-470 (30 mg/Kg TNP-equiv.) for three days, with Y27632 (50 nM s.c.) for 11 days, with angiostatin (200 mg/kg/day s.c.) for five days, or with saline (250 μl s.c.) for 5 days (n=12) prior to performing the Miles assay ([…] et al., 1996; Miles and Miles, 1952; Streit et al., 2000). Briefly, Evan's blue dye (100 μl of a 1% solution in 0.9% NaCl) was injected intravenously (i.v.) into mice. After 10 minutes, 50 μl of human VEGF165 (1 ng/μl), PAF (100 μM), CNF-1 (100 ng), histamine (1.2 μg/ml) or PBS (50 ul) were injected intradermally into the pre-shaved back skin. After 20 minutes, the animals were euthanized and an area of skin that included the blue spot resulting from leakage of the dye was removed. Evan's blue dye was extracted from the skin by incubation with formamide for 5 days at room temperature, and the absorbance of extracted dye was measured at 620 nm using a spectrophotometer. The unpaired Student t test was used for statistical analysis.
# [3] = tested on: U87 glioblastoma tumor blood vessel permeability; assay: Miles assay on tumor-bearing mice (Example 3), U87; design: species or system SCID mice; conditions: mouse, in vivo
# Protocol: Female SCID mice ( 8 weeks, 20 g) were inoculated s.c. with 5×10^6 viable U87 glioblastoma cells or viable A2058 human melanoma cells or BXPC3 pancreas adenocarcinoma cells. Female nu/nu mice were inoculated with MCF-7 or MDA-MB-231 breast carcinoma cells in the mammary fat pad. C57B1/6J were inoculated with LLC. […] blue dye was then injected i.v. and extravasation of dye assessed as above. Also, blood was withdrawn to measure VPF/VEGF levels in plasma and in tumors (n=5 from each group). Tumors (n=5 per group) were dissected, weighed and cut in half. Half of the tumor was placed in formalin and half was analyzed for VPF/VEGF protein by ELISA (see below). Formalin fixed tumors were processed for sectioning and staining with H & E, CD31, smooth muscle actin (SMA) and proliferating cell nuclear antigen (PCNA) according to the manufacturers' instructions.
# [4] = tested on: skin capillary permeability; assay: Evans Blue skin permeability assay, intradermal VEGF, endostatin-treated mice; type: in vivo; conditions: FVB/NJ mice, i.p. for 4 days
# Protocol: (§1) The antiangiogenic factor (endostatin) was injected intraperitoneally to FVB/NJ mice for 4 days. Immediately after the last injection, mice were anasthesized and received intravenous injection of 100 μl Evans Blue dye (1% in PBS). Subsequently, different amounts of VEGF165, VEGF121 or saline were injected intradermaly. After 20 minutes, mice were sacrificed and skin flap from the back was removed and photographed. Skin samples from the injection sites were excised and incubated in formamide for 5 days in order to extract the dye and O.D. was measured at 620 nm. […] Quantitative analysis of Evans Blue dye extravasation (FIG. 1) confirmed the lower skin capillary permeability of the antiangiogenic factor-treated mice and indicated the weak permeability-inducing effect of VEGF in these mice.
# [5] = tested on: skin capillary permeability; assay: Evans Blue skin permeability assay, intradermal PAF, endostatin-treated mice; type: in vivo; conditions: Nude mice
# Protocol: as §1
# In order to test if the effects of the antiangiogenic factor (endostatin) on vascular permeability is VEGF-specific, we have tested the effects of intradermal injection of platelet-activating factor (PAF) in Nude mice that were previously injected with the antiangiogenic factor and in control mice, as described above. […] Quantitative analysis of Evans Blue dye extravasation (FIG. 2) confirmed the lower skin capillary permeability of the antiangiogenic factor-treated mice compared with control and the lack of PAF-induced hyperpermeability in these mice. […]
# skin vessel permeability [6] = assay: Duration of exposure: Alzet pump endostatin, skin vessel permeability; type: in vivo, mice (SCID)
# Protocol: In order to test if continuous exposure to the antiangiogenic factor (endostatin) is required to repress blood vessel permeability, mice (SCID) were anesthetized and “Alzet” pumps loaded with the antiangiogenic factor or saline were implanted intraperitoneally. The pumps release 1 μl the antiangiogenic factor per hour. Skin vessel permeability using Evans Blue dye was performed as described above. Saline and the antiangiogenic factor treated mice were examined 2, 3 and 4 days after pump implantation, as described above (FIG. 3). […] In both groups, PAF injection induced higher vessel permeability than saline injection. […] However, in both groups PAF injection induced higher vessel permeability than saline injection. […] Since the tumor vessels are continuously permeabilized and plasma proteins contained within the tumor support its vascularization the anti-permeability effect of the antiangiogenic factor offers a possible mechanism for its anti-tumor activity.
# [7] = tested on: Bovine capillary endothelial cells (BCE); assay: In vitro diffusion of FITC-dextran through endothelial cell monolayer (Transwells); type: cell-based
# Protocol: The effects of the antiangiogenic factor (endostatin) on skin vessel permeability in vivo were tested in an in vitro diffusion model designed to mimic blood vessel permeability. Bovine capillary endothelial cells (BCE) were seeded in collagen coated inserts of “Transwells” and grown to confluence. The antiangiogenic factor was added every 24 hours. Four days later the inserts were washed with BCE culture medium and the following tracers and permeability regulators were added to the inserts. Half of the inserts received 5 mg/ml FITC-labeled dextran 10 kDa and the other half received 5 mg/ml FITC-labeled dextran 70 kDa. In addition, some inserts received 50 ng/ml VEGF165 or 100 nM PAF. Control inserts received BCE culture medium with fluorescent tracers only. The fluorescence in the lower wells was measured after 10, 20, 30, 45 and 60 minutes by transferring the inserts into new wells.
# In order to follow the kinetic of the diffusion process, the flow of the tracer was calculated as fluorescent counts per minute (FIGS. 5 and 6). […] In contrast, the flow in control cells was constant and was lower than that observed in PAF and VEGF165-treated cells.
# lung tissue = assay: Swelling of lung tissue induced by micro-encapsulated VEGF-producing cells; type: in vivo, Mice; conditions: VEGF producing cells together with endostatin producing cells, 0.5x10^6 encapsulated cells of each
# Description: Dilation of the lung tissue may result in lung dysfunction and development of pulmonary hypertension. Mice injected with micro-encapsulated cells producing VEGF (approximately 0.5×10^6 cells per mouse) developed thickened lung parenchyma 5 days after injection. At a higher magnification we observed generation of several cell layers between the alveoli compared with one layer of cells in mice injected with micro-encapsulated control cells or with micro-encapsulated cells producing endostatin (Endost). […] Moreover, treatment with endostatin reduced the number of cell layers between the alveoli and the lungs of mice that were treated with endostatin appeared similar to control mice. Therefore, endostatin appears to block the swelling of lung tissue and may be used for treatment of pulmonary hypertension.
# [8] = tested on: Bovine capillary endothelial cells (BCE); assay: Immunostaining of tight junction proteins in BCE, endostatin; type: cell-based
# Protocol: Bovine capillary endothelial cells (BCE) were cultured in the presence of 0.2, 0.5 and 2 μg/ml human endostatin for three days. The cells were fixed and immunostained with anti-β-catenin, occludin, and ZO-1 antibodies (Zymed Laboratories, CA). The staining was developed using FITC-conjugated secondary antibodies and visualized under fluorescent microscopy. Immunostaining for β-catenin marked the cell borders and was more intense when two cells contacted each other. […] There was no difference in β-catenin staining between 0.5 and 2.0 μg/ml endostatin. […] Similar results were obtained with ZO-1 immunostaining. […] This is the first documentation of the effects of endostatin on tight junctions that may explain, in part, the mechanism of its antiangiogenic activities. Similar experiments were performed in which BCE were incubated in the presence and absence of 0.5 μg/ml endostatin for 3 days followed by stimulation with PAF for 20 minutes. The cells were fixed and immunostained with anti-α-catenin, occludin, and ZO-1 antibodies (Zymed Laboratories, CA), as described above.
# [9] = tested on: histamine-induced local edema; assay: Histamine-induced wheal and flare test; type: in vivo; conditions: humans receiving the factor
# Protocol: Antiangiogenic treatment has entered into clinical trials recently. Molecules that are tested in phase 1 and 2 clinical trials include endostatin, angiostatin, TNP-470, thalidomide, anti-VEGF antibodies, PTK787, SU-5416, SU-6668 and others. […] Mice that received endostatin for several days had lower diffusion of Evans blue from the skin capillaries in response to intradermal VEGF and PAF injection compared with normal mice. The existing test of histamine-induced wheal and flare in skin can be used in order to test bioactivity of endostatin and other antiangiogenic factors. Intradermal injection of histamine leads to the formation of local adema ([…]) due to blood vessel hyperpermiability. […] This test will serve as an early surrogate marker for the bioactivity of endostatin and other antiangiogenic factors and help to determine the treatment's efficiency in individual patients.
compound,measurement,setting,value
O=C1CCC(N2C(=O)c3ccccc3C2=O)C(=O)N1 (stereo not shown) [Thalidomide],effect on VEGF induced vessel permeability,[1],no effect
same,effect on VPF/VEGF-induced vessel permeability,skin vessel permeability [2]; VPF/VEGF intradermal,no significant effect
C[C@@H](N)[C@H]1CC[C@H](C(=O)Nc2ccncc2)CC1 [Y27632],CNF-1-induced Evan's blue-albumin extravasation,skin vessel permeability [2]; CNF-1 intradermal,inhibited
same,effect on VPF/VEGF-induced vessel permeability,skin vessel permeability [2]; VPF/VEGF intradermal,inhibited
angiostatin,decrease of PAF-induced permeability,skin vessel permeability [2]; PAF intradermal,37%
same,inhibition of Evan's blue dye extravasation from VPF/VEGF injection sites,skin vessel permeability [2]; VPF/VEGF intradermal,40%
same,decrease of histamine-induced permeability,skin vessel permeability [2]; histamine intradermal,51%
same,Evan's blue extravasation into U87 glioblastomas,[3],did not inhibit
endostatin,VEGF-induced hyperpermeability (Evans Blue extravasation),[4]; intradermal VEGF165/VEGF121,minor induction of hyperpermeability
same,Evans Blue dye leakage from skin capillaries,[4]; vs control mice,overall lower dye leakage than the control
same,PAF-induced vascular permeability,[5],repressed
same,duration of treatment required to reduce skin vessel permeability,"skin vessel permeability [6]; SCID mice, intraperitoneal Alzet pump",at least 3 days
same,blood vessel permeability in response to PAF injection vs saline treated mice,skin vessel permeability [6]; day two after pump implantation,no significant difference
same,flow of the tracer (fluorescent counts per minute),[7]; 10 kDa and 70 kDa dextrans,significant reduced flow
same,sum of fluorescent count over 60 minutes,"[7]; BCE monolayer pre-treated 4 days, FITC-dextran 10 kDa and 70 kDa, vs control, VEGF165- and PAF-treated cells",significantly lower fluorescent counts
same,"lung tissue appearance (cell layers, extracellular matrix)",lung tissue,fewer cell layers and no accumulation of extracellular matrix
same,cell boundary β-catenin staining,"[8]; 0.2 μg/ml, three days",intensified
same,"PAF reduction of staining intensity of anti-α-catenin, occludin and ZO-1","[8]; 0.5 μg/ml for 3 days, then PAF for 20 minutes",not in endostatin-treated cells
same,cell boundary β-catenin staining,"[8]; 0.5 μg/ml, three days",further intensified
same,ZO-1 immunostaining,"[8]; 0.2-2.0 μg/ml, three days",Cells boundaries were only visible
same,occludin immunostaining,"[8]; 0.5 and 2.0 μg/ml, three days",cell boundaries were observed
same,zone of edema after intradermal histamine,[9],reduced zone of edema
